Assay results: ChEMBL document CHEMBL1909046, “DrugMatrix in vitro pharmacology data”

Assays:
[1] = target: C-C chemokine receptor type 5 (Homo sapiens, UniProt P51681); assay type: cell membranes, HEK293, Membrane; conditions: hek293; further: in other assays of this panel Not Active means under 50% inhibition at 10 µM
[2] = DRUGMATRIX: Phosphodiesterase PDE3 enzyme inhibition (substrate: [3H]cAMP + cAMP); assay type: tissue-based, Homo sapiens; conditions: platelet; Not Active = under 50% inhibition at 10 µM
Carbonic anhydrase 2 = Carbonic anhydrase 2 (Homo sapiens, UniProt P00918); assay: DRUGMATRIX: Carbonic Anhydrase II enzyme inhibition (substrate: 4-Nitrophenyl acetate (4-NPA)); assay type: tissue-based, Erythrocyte; conditions: Not Active = under 50% inhibition at 10 µM
[3] = target: T1, Alpha-1D adrenergic receptor (Homo sapiens, UniProt P25100); assay type: cell membranes, HEK293, Membrane; conditions: for Ki: read-out: Ki; on all read-outs here: in other assays of this panel Not Active means under 50% inhibition at 10 µM
T1 sequence (P25100 whole entry): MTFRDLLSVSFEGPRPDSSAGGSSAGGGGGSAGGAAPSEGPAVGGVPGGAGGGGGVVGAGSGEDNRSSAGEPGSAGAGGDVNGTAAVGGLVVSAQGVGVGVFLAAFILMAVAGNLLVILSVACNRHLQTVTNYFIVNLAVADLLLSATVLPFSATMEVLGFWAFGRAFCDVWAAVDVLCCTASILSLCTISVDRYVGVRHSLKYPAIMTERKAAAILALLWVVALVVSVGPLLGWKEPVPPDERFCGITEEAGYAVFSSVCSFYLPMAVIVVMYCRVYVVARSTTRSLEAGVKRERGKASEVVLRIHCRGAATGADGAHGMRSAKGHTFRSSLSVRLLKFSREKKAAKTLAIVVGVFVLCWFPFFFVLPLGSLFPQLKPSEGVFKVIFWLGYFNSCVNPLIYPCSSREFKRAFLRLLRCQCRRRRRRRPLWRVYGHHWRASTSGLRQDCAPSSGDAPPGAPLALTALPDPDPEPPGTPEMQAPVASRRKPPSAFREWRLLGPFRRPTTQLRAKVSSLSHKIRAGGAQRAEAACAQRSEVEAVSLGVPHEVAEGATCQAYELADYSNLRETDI

Interstitial collagenase = target: T2, Interstitial collagenase (Homo sapiens, UniProt P03956); assay: biochemical; assay type: tissue-based, Rheumatoid synovial fibroblasts;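 further: MMP-1 enzyme inhibition assay using a peptide substrate; in other assays of this panel Not Active means under 50% inhibition at 10 µM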
T2 sequence (P03956 whole entry): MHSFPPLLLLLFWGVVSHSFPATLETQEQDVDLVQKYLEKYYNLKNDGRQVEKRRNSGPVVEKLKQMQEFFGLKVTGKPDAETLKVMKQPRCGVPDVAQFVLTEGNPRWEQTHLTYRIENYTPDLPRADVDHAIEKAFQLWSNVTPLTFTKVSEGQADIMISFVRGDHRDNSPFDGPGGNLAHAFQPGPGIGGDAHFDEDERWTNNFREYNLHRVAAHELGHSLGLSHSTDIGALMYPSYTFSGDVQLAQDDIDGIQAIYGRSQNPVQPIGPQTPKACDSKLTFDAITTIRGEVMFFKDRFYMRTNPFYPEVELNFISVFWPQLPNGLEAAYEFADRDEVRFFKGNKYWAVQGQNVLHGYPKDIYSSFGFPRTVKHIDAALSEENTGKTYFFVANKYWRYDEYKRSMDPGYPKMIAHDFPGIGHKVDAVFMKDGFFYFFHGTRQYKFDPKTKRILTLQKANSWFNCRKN

Caspase-1 = target: T3, Caspase-1 (Homo sapiens, UniProt P29466); set-up: species or system Escherichia coli;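 further: Caspase-1 enzyme inhibition assay with a peptide substrate; in other assays of this panel Not Active means under 50% inhibition at 10 µM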
T3 sequence (P29466 whole entry): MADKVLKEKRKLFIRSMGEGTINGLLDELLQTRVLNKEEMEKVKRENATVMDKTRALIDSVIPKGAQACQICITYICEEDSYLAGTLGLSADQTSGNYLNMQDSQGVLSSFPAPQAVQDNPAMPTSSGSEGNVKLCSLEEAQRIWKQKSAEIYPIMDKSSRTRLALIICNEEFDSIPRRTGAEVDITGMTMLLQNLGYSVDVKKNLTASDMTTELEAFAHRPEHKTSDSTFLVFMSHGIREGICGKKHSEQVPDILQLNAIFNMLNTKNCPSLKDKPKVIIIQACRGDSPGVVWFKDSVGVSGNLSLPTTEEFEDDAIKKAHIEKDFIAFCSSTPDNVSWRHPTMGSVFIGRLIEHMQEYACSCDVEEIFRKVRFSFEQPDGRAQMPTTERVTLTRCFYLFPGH

[4] = target: T4, Alpha-1B adrenergic receptor (Rattus norvegicus, UniProt P15823); assay: DRUGMATRIX: Alpha-1B adrenergic receptor radioligand binding (ligand: prazosin); assay type: cell membranes, Wistar, Liver, Membrane; conditions: Not Active = under 50% inhibition at 10 µM
T4 sequence (P15823 whole entry): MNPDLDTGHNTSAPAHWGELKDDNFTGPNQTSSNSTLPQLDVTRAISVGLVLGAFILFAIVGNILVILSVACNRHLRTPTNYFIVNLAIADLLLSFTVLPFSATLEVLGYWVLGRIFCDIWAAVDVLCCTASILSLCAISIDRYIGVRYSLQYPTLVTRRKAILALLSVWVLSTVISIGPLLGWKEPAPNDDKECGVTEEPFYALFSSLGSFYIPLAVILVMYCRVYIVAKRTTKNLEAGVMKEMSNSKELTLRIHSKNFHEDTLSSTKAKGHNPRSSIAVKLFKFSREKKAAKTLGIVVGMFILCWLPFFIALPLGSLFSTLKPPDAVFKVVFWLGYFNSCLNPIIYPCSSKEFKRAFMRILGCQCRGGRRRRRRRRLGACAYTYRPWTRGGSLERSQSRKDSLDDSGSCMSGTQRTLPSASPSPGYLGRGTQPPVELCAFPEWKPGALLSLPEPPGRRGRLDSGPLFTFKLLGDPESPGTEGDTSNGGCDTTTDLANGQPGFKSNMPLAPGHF

Leukotriene C4 synthase = target: T5, Leukotriene C4 synthase (Cavia porcellus, UniProt A6XA80); assay type: tissue-based, Lung
T5 sequence (A6XA80 whole entry): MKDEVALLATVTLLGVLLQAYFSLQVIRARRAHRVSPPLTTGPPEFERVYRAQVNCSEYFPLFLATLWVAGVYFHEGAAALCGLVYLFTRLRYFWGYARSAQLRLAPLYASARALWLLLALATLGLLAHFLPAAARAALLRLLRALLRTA

Chain of C-C chemokine receptor type 5 (P51681 whole entry): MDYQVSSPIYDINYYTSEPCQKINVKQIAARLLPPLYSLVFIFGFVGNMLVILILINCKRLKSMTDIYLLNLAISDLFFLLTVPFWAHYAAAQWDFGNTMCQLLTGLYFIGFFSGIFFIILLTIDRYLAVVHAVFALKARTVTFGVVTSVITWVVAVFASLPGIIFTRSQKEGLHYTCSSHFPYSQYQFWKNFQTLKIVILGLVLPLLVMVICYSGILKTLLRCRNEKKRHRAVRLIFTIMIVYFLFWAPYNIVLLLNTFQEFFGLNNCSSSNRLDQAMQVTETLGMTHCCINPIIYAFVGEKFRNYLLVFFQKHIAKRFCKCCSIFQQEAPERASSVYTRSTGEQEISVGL

SMILES: COCCOC(=O)C1=C(C)NC(C)=C(C(=O)OC(C)C)C1c1cccc([N+](=O)[O-])c1 (centres undefined) [NIMODIPINE]
- IC50 [1]: Not Active
- IC50 [2]: Not Active
- Ki [2]: Not Active
- IC50 (Carbonic anhydrase 2; erythrocyte): Not Active
- IC50 ([3]; hek293): Not Active
- IC50 (Interstitial collagenase): Not Active
- IC50 (Caspase-1): Not Active
- IC50 [4]: Not Active
- IC50 (Leukotriene C4 synthase): Not Active

SMILES: CC(=O)N1CCN(c2ccc(OCC3COC(Cn4ccnc4)(c4ccc(Cl)cc4Cl)O3)cc2)CC1 (centres undefined) [KETOCONAZOLE]
- IC50 [1]: Not Active
- IC50 [2]: Not Active
- Ki [2]: Not Active
- IC50 (Carbonic anhydrase 2; erythrocyte): Not Active
- IC50 ([3]; hek293): Not Active
- IC50 (Interstitial collagenase): Not Active
- IC50 (Caspase-1): Not Active
- IC50 ([4]; read-out: IC50): 22900 nM
- Ki ([4]; read-out: Ki): 12700 nM
- IC50 (Leukotriene C4 synthase): Not Active

SMILES: COc1cc(NS(=O)(=O)c2ccc(N)cc2)nc(OC)n1 [SULFADIMETHOXINE]
- IC50 [1]: Not Active
- IC50 [2]: Not Active
- Ki [2]: Not Active
- IC50 (Carbonic anhydrase 2; erythrocyte): Not Active
- IC50 ([3]; hek293): Not Active
- IC50 (Interstitial collagenase): Not Active
- IC50 (Caspase-1): Not Active
- IC50 [4]: Not Active
- IC50 (Leukotriene C4 synthase): Not Active

SMILES: C[C@]1(Cn2ccnn2)[C@H](C(=O)O)N2C(=O)C[C@H]2S1(=O)=O [TAZOBACTAM]
- IC50 [1]: Not Active
- IC50 [2]: Not Active
- Ki [2]: Not Active
- IC50 (Carbonic anhydrase 2; erythrocyte): Not Active
- IC50 ([3]; hek293): Not Active
- IC50 (Interstitial collagenase): Not Active
- IC50 (Caspase-1): Not Active
- IC50 [4]: Not Active
- IC50 (Leukotriene C4 synthase): Not Active

SMILES: [Cl-].[Cl-].[Zn+2] [ZINC CHLORIDE]
- IC50 [1]: Not Active
- IC50 [2]: Not Active
- Ki [2]: Not Active
- IC50 (Carbonic anhydrase 2; read-out: IC50): 1160 nM
- IC50 ([3]; hek293): Not Active
- IC50 (Interstitial collagenase): Not Active
- IC50 (Caspase-1): Not Active
- IC50 [4]: Not Active
- IC50 (Leukotriene C4 synthase): Not Active

SMILES: CC/C(=C(/CC)c1ccc(O)cc1)c1ccc(O)cc1 [DIETHYLSTILBESTROL]
- IC50 [1]: Not Active
- IC50 (Carbonic anhydrase 2; erythrocyte): Not Active
- IC50 ([3]; read-out: IC50): 10800 nM
- Ki [3]: 5320 nM
- IC50 (Interstitial collagenase): Not Active
- IC50 (Caspase-1): Not Active
- IC50 (Leukotriene C4 synthase): Not Active

SMILES: C=CCN1CC[C@]23c4c5ccc(O)c4O[C@H]2C(=O)CC[C@@]3(O)[C@H]1C5 [NALOXONE]
- IC50 [1]: Not Active
- IC50 (Carbonic anhydrase 2; erythrocyte): Not Active
- IC50 ([3]; hek293): Not Active
- IC50 (Interstitial collagenase): Not Active
- IC50 (Caspase-1): Not Active
- IC50 (Leukotriene C4 synthase): Not Active

SMILES: Clc1ccc2c(c1)C(N1CCNCC1)=Nc1ccccc1O2 [AMOXAPINE]
- IC50 [1]: Not Active
- IC50 (Carbonic anhydrase 2; erythrocyte): Not Active
- IC50 ([3]; read-out: IC50): 306 nM
- Ki [3]: 150 nM
- IC50 (Interstitial collagenase): Not Active
- IC50 (Caspase-1): Not Active
- IC50 (Leukotriene C4 synthase): Not Active

SMILES: CN1CCC(=C2c3ccccc3C=Cc3ccccc32)CC1 [CYPROHEPTADINE]
- IC50 [1]: Not Active
- IC50 (Carbonic anhydrase 2; erythrocyte): Not Active
- IC50 ([3]; read-out: IC50): 107 nM
- Ki [3]: 53 nM
- IC50 (Interstitial collagenase): Not Active
- IC50 (Caspase-1): Not Active
- IC50 (Leukotriene C4 synthase): Not Active

SMILES: COc1cc2c(c(OC)c1OC)-c1ccc(OC)c(=O)cc1[C@@H](NC(C)=O)CC2 [COLCHICINE]
- IC50 [1]: Not Active
- IC50 (Carbonic anhydrase 2; erythrocyte): Not Active
- IC50 ([3]; hek293): Not Active
- IC50 (Interstitial collagenase): Not Active
- IC50 (Caspase-1): Not Active
- IC50 (Leukotriene C4 synthase): Not Active
